Tests used:
Format in all cases: in vivo, ICR mice
[1] = tested on: mouse model of stroke induced by middle cerebral artery occlusion (MCAO); assay: Beam-walking test (Example 1); settings: 10 mg/kg i.v. Bid from 30 min after infarction
Description: (§1) The administration of the respective treatments was started 30 minutes after the MCAO procedure of the mice.
(§2) Seventy-two (72) ICR mice received behavioral training after adaptive feeding period and before the operation to establish stroke models. The behavioral training included beam-walking and rotarod test. The experimental mice were then randomly divided into 6 groups according to the values of the body weight, with 12 mice in each test group as described in Table 1.
(§3) The mice were fasted overnight before modeling and were anesthetized with isoflurane. Right middle cerebral artery occlusion (MCAO) was induced in mice using the intraluminal filament technique to mimic focal cerebral ischemic stroke. After 1 hr, reperfusion was allowed by removing the occlusion. During the operation, a white light was used to maintain the mouse rectal temperature between 36.5° C.-37.0° C.
(§4) Administration of each treatment was performed 0.5 h after the infarction. The neurological function score was evaluated at 24 hrs and 48 hrs after reperfusion, as was assessed by beam-walking, grip strength, and rotarod tests. At 48 h after reperfusion, the whole brain tissue of all rats was harvested to assess the cerebral infarct area by TTC staining, as well as to measure brain volume and brain water content, two indicators of acute cerebral edema.

[2] = tested on: mouse model of stroke induced by middle cerebral artery occlusion (MCAO); assay: Grip strength (Example 1); settings: 10 mg/kg i.v. Bid from 30 min after infarction
Description: as §1, §2, §3, §4

[3] = tested on: mouse model of stroke induced by middle cerebral artery occlusion (MCAO); assay: Rotarod test (Example 1); settings: 10 mg/kg i.v. Bid from 30 min after infarction
Description: as §1, §2, §3, §4

[4] = tested on: mouse model of stroke induced by middle cerebral artery occlusion (MCAO); assay: Cerebral infarct volume by TTC staining (Example 1); settings: 10 mg/kg i.v. Bid from 30 min after infarction, 48 h after reperfusion
Description: as §1, §2, §3, §4

[5] = tested on: mouse model of stroke induced by middle cerebral artery occlusion (MCAO); assay: Brain water content (Example 1); settings: 10 mg/kg i.v. Bid from 30 min after infarction; 48 h after reperfusion
Description: as §1, §2, §3, §4

[6] = tested on: mouse model of stroke induced by middle cerebral artery occlusion (MCAO); assay: Brain volume (Example 1); settings: 10 mg/kg i.v. Bid from 30 min after infarction; 48 h after reperfusion
Description: as §1, §2, §3, §4

[7] = tested on: mouse model of stroke induced by middle cerebral artery occlusion (MCAO); assay: Beam-walking test, time of treatment (Example 2)
Description: (§5) The administration of 10 mg/kg butylphthalide and 50 mg/kg ALMB-0166 was started 30 minutes, 2 hours, or 6 hours after the MCAO procedure of the mice. Ninety-six (96) ICR mice received behavioral training after adaptive feeding period and before the operation to establish stroke models. The behavioral training included beam-walking and rotarod test. The experimental mice were then randomly divided into 8 groups according to the values of the body weight, with 12 mice in each test group as described in Table 1. The mice were fasted overnight before modeling and were anesthetized with isoflurane. Right middle cerebral artery occlusion (MCAO) was induced in mice using the intraluminal filament technique to mimic focal cerebral ischemic stroke. After 1 hr, reperfusion was allowed by removing the occlusion. Administration of each treatment was performed 0.5 hrs, 2 hrs, or 6 hrs after the infarction. The neurological function score was evaluated at 24 hrs and 48 hrs after reperfusion, as was assessed by beam-walking, grip strength, and rotarod tests. At 48 hrs after reperfusion, the whole brain tissue of all rats was harvested to assess the cerebral infarct area by TTC staining, as well as to measure brain volume and brain water content, two indicators of acute cerebral edema.

[8] = tested on: mouse model of stroke induced by middle cerebral artery occlusion (MCAO); assay: Grip strength, time of treatment (Example 2)
Description: as §5

[9] = tested on: mouse model of stroke induced by middle cerebral artery occlusion (MCAO); assay: Rotarod test, time of treatment (Example 2)
Description: as §5

[10] = tested on: mouse model of stroke induced by middle cerebral artery occlusion (MCAO); assay: Cerebral infarct volume by TTC staining, time of treatment (Example 2); settings: 48 h after reperfusion; for Improvement rate of infarction: vs model
Description: as §5

[11] = tested on: mouse model of stroke induced by middle cerebral artery occlusion (MCAO); assay: Brain water content, time of treatment (Example 2); settings: 10 mg/kg i.v. once 0.5 hr after infarction; 48 h after reperfusion
Description: as §5

[12] = 10 mg/kg i.v. once 0.5 hr after infarction, 24 h
[13] = 10 mg/kg i.v. once 0.5 hr after infarction, 48 h
[14] = 10 mg/kg i.v. once 2 hr after infarction, 24 h
[15] = 10 mg/kg i.v. once 2 hr after infarction, 48 h
[16] = 10 mg/kg i.v. once 6 hr after infarction, 24 h
[17] = 10 mg/kg i.v. once 6 hr after infarction, 48 h
[18] = 10 mg/kg i.v. once 0.5 hr after infarction
[19] = 10 mg/kg i.v. once 2 hr after infarction
[20] = 10 mg/kg i.v. once 6 hr after infarction

## CCCCC1OC(=O)c2ccccc21 (stereo not drawn) [Butylphthalide]
[1]; 24 h
  Beam-walking time: 41.27 ± 21.52 s
[1]; 48 h
  Beam-walking time: 41.92 ± 22.83 s
[2]; 24 h
  Grip Strength: 206.29 ± 46.55^ g
[2]; 48 h
  Grip Strength: 214.71 ± 34.19 g
[3]; 24 h
  Rotarod test score, Time: 216.67 ± 91.22 s
[3]; 48 h
  Rotarod test score, Time: 146.50 ± 137.21 s
[4]
  Cerebral Infarction Volume: 27.29 ± 13.07 %
[4]; vs model
  Improvement rate of infarction: 43.02%
[5]
  Brain water content: 329.50 ± 23.60 mg
  Brain water ratio: 81.84 ± 1.30%
[6]
  Brain volume: 0.413 ± 0.03 mL
[7]; [12]
  Beam-walking time: 57.69 ± 3.94 s
[7]; [13]
  Beam-walking time: 51.37 ± 16.46 s
[7]; [14]
  Beam-walking time: 53.12 ± 12.48 s
[7]; [15]
  Beam-walking time: 52.73 ± 10.98 s
[7]; [16]
  Beam-walking time: 10.32 s
[7]; [17]
  Beam-walking time: 58.57 ± 3.23 s
[8]; [12]
  Grip Strength: 203.13 ± 35.30 g
[8]; [13]
  Grip Strength: 196.04 ± 41.72 g
[8]; [14]
  Grip Strength: 199.41 ± 38.48 g
[8]; [15]
  Grip Strength: 186.33 ± 44.64 g
[8]; [16]
  Grip Strength: 187.08 ± 53.81 g
[8]; [17]
  Grip Strength: 168.16 ± 66.94 g
[9]; [12]
  Rotarod test score, Time: 151.83 s
[9]; [13]
  Rotarod test score, Time: 193.25 s
[9]; [14]
  Rotarod test score, Time: 124.67 s
[9]; [15]
  Rotarod test score, Time: 171.67 s
[9]; [16]
  Rotarod test score, Time: 121.42 s
[9]; [17]
  Rotarod test score, Time: 98.00 s
[10]; [18]
  Cerebral Infarction Volume: 28.56%
  Improvement rate of infarction: 33.50%
[10]; [19]
  Cerebral Infarction Volume: 34.25%
  Improvement rate of infarction: 20.25%
[10]; [20]
  Cerebral Infarction Volume: 31.89%
  Improvement rate of infarction: 25.76%
[11]
  Brain water content: 329.00 mg

— patent US20250059264A1, “METHOD OF TREATING STROKE” (AlaMab Therapeutics, Inc., priority 2023, published 2025)
